Source: patent US20120035206A1, “PREPARATION AND APPLICATION OF NOVEL ANTIBACTERIAL AND ANTICANCER COMPOUNDS AND THEIR DERIVATIVES” (priority 2009, published 2012)
Converted amounts (≈) assume the structure as drawn.

Legend:
Format in all cases: cell-based
FTC 133 = test: In vitro anticancer MTT experiment; details: Homo sapiens, concentration 5 ug/ml, 48 h or 72 h, read-out: inhibition ratio FTC 133
Protocol: (§1) In vitro anticancer experiments of 25 compounds as anti-bacterial and anti-cancer compounds in the patent were tested. In the test, 14 kinds of cancer cells were used as tested cancer cells. And the results obtained by MTT method were shown in table 2 (the inhibition ratio was obtained when the concentration was 5 ug/ml). Tested Cancer Cells: SGC7901, HTB-38HT-29, CRL-2233NU-398, CRL-1469PANC-1, B0192, HTB-131MDA-453, CRL-1435PC-3, FTC133, AS24391, HTB-95637. (Cancer cells were from Chinese Military Academy of Medical Sciences). Cells Culture: Culture solution was composed of RPMI 1640 medium, 10% (VAT) Fetal calf serum and 0.01% L-glutamine. Cultured cells were maintained at 37° C. in an incubator with 5% CO2. The cells at logarithmic growth phase were used in the experiment. MTT Experiment: Single cell suspension was obtained by digesting cells with 0.25% trypsin. The cells at logarithmic growth phase were collected and seeded in a 96-well plate at a concentration of 6000-7000 cells per well. After culturing for 12 h at 37° C. in the incubator with 5% CO2, the cells were again incubated with the tested compounds of various concentrations for 48 h or 72 h. Pure cultures and cells without drug were taken as blank reference and negative reference, and 8 Wells of each group were taken. Twenty microliter of MTT (5 mg/mL) was added to each well, and the mixed solutions were incubation for 4 h. The formazan product was dissolved by dimethyl sulfoxide (DMSO, 150 μL), and the optical density (O.D.) was read at 570 nm. The Inhibition Ratio was calculated by the following formula: Inhibition Ratio=(Anegative control−Asample)/(Anegative control−Ablank control)

CRL-2233SNU-398 = test: In vitro anticancer MTT experiment; details: concentration 5 ug/ml, 48 h or 72 h, read-out: inhibition ratio CRL-2233SNU-398
Protocol: as §1

L1210 = test: In vitro anticancer MTT experiment; details: Mus musculus, concentration 5 ug/ml, 48 h or 72 h, read-out: inhibition ratio L1210
Protocol: as §1

HTB-95637 = test: In vitro anticancer MTT experiment; details: concentration 5 ug/ml, 48 h or 72 h, read-out: inhibition ratio HTB-95637
Protocol: as §1

HTB-131MDA-MB-453 = test: In vitro anticancer MTT experiment; details: concentration 5 ug/ml, 48 h or 72 h, read-out: inhibition ratio HTB-131MDA-MB-453
Protocol: as §1

CRL-1435PC-3 = test: In vitro anticancer MTT experiment; details: concentration 5 ug/ml, 48 h or 72 h, read-out: inhibition ratio CRL-1435PC-3
Protocol: as §1

A375 = test: In vitro anticancer MTT experiment; details: Homo sapiens, A-375, concentration 5 ug/ml, 48 h or 72 h, read-out: inhibition ratio A375
Protocol: as §1

AS24391 = test: In vitro anticancer MTT experiment; details: concentration 5 ug/ml, 48 h or 72 h, read-out: inhibition ratio AS24391
Protocol: as §1

CRL-1469PANC-1 = test: In vitro anticancer MTT experiment; details: concentration 5 ug/ml, 48 h or 72 h, read-out: inhibition ratio CRL-1469PANC-1
Protocol: as §1

L428 = test: In vitro anticancer MTT experiment; details: Homo sapiens, L-428, concentration 5 ug/ml, 48 h or 72 h, read-out: inhibition ratio L428
Protocol: as §1

B01092 = test: In vitro anticancer MTT experiment; details: concentration 5 ug/ml, 48 h or 72 h, read-out: inhibition ratio B01092
Protocol: as §1

HTB-94 = test: In vitro anticancer MTT experiment; details: concentration 5 ug/ml, 48 h or 72 h, read-out: inhibition ratio HTB-94
Protocol: as §1

SGC7901 = test: In vitro anticancer MTT experiment; details: Homo sapiens, SGC-7901, concentration 5 ug/ml, 48 h or 72 h, read-out: inhibition ratio SGC7901
Protocol: as §1

HTB-38HT-29 = test: In vitro anticancer MTT experiment; details: concentration 5 ug/ml, 48 h or 72 h, read-out: inhibition ratio HTB-38HT-29
Protocol: as §1

C. tropicalis = test: In vitro antibacterial (antifungal) test, two-fold dilution MIC; details: Candida tropicalis, RPMI 1640, culture 2-7 days
Protocol: (§2) In vitro antibacterial experiments of 25 compounds as anti-bacterial and anti-cancer compounds in the patent were tested using 14 kinds of bacteria. Tested bacteria: C. albicans, C. tropicalis, C. neoformans, E. floccosum, M. gypseum, A. niger, S. schenekn, C. parapsilosis, C. glabrata, C. Krusei, Trichoderma, Gibberella, Setrosphaeria turcica, Fusarium Oxysporum Vasinfectum. (Bacteria were from the Dermatology Hospital of Chinese Academy of Medical Sciences, Nanjing, China.)
(§3) The Preparation of tested Bacteria solution was following: incubated Bacteria were added to 5 ml physiological saline, and then they were mashed and placed with ultrasound. The solution was fully mixed, and insoluble substances were removed. The treated solution was called the original bacterium solution. In the test, the bacteria concentration in the original bacterium solution was adjusted to […].
(§4) Tested Methods: the tested compounds were dissolved in dimethyl sulfoxide. and the solution was diluted with sterile distilled water. And the distilled solution was added to sterilized RPMI 1640 medium. The concentration of the compounds were adjusted to 256, 128, 64, 32, 16, 8, 4, 2, 1, 0.5, 0.25, 0.125 ug*ml-1. Then the adjusted solutions were inoculated with tested bacteria, and the tested systems were placed in the constant temperature oven to culture for 2-7 days. The concentration at which there was no growing of fungi was taken as the minimum inhibitory concentration (MIC).

M. gypseum = test: as above; details: Nannizzia gypsea, RPMI 1640, culture 2-7 days
Protocol: as §2, §3, §4

C. glabrata = test: as above; details: Nakaseomyces glabratus, RPMI 1640, culture 2-7 days
Protocol: as §2, §3, §4

C. parapsilosis = test: as above; details: Lodderomyces parapsilosis, RPMI 1640, culture 2-7 days
Protocol: as §2, §3, §4

C. Krusei = test: as above; details: Pichia kudriavzevii, RPMI 1640, culture 2-7 days
Protocol: as §2, §3, §4

C. neoformans = test: as above; details: Cryptococcus neoformans, RPMI 1640, culture 2-7 days
Protocol: as §2, §3, §4

S. schenekn = test: as above; details: RPMI 1640, culture 2-7 days
Protocol: as §2, §3, §4

E. floccosum = test: as above; details: Epidermophyton floccosum, RPMI 1640, culture 2-7 days
Protocol: as §2, §3, §4

C. albicans = test: as above; details: Candida albicans, read-out: MIC C. albicas
Protocol: as §2, §3, §4

Terchoderma = test: as above; details: Trichoderma, RPMI 1640, culture 2-7 days
Protocol: as §2, §3, §4

Setosphaeria turcica = test: as above; details: Exserohilum turcicum, RPMI 1640, culture 2-7 days
Protocol: as §2, §3, §4

[1] = test system: Fusarium oxysporum vasinfectum; test: as above; details: RPMI 1640, culture 2-7 days
Protocol: as §2, §3, §4

SMILES | MIC (C. tropicalis) | MIC (M. gypseum) | MIC (C. glabrata) | MIC (C. parapsilosis) | MIC (C. Krusei) | MIC (C. neoformans) | MIC (S. schenekn) | MIC (E. floccosum) | MIC (C. albicans) | MIC (Terchoderma) | MIC (Setosphaeria turcica) | further results
O=C1/C(=C/Cl)SCc2ccccc21 [Compound 14, (Z)-3-(chloromethylene)isothiochroman-4-one] | 32 µg/mL (≈ 152 µM) | 4 µg/mL (≈ 19 µM) | 16 µg/mL (≈ 75.9 µM) | 32 µg/mL (≈ 152 µM) | 64 µg/mL (≈ 304 µM) | 4 µg/mL (≈ 19 µM) | 8 µg/mL (≈ 38 µM) | 16 µg/mL (≈ 75.9 µM) | 4 µg/mL (≈ 19 µM) | – | – | inhibition at 5 µg/mL (FTC 133): 30.4%; inhibition at 5 µg/mL (CRL-2233SNU-398): 58.9%; inhibition at 5 µg/mL (L1210): 78%; inhibition at 5 µg/mL (HTB-95637): 40.5%; inhibition at 5 µg/mL (HTB-131MDA-MB-453): 56.7%; inhibition at 5 µg/mL (CRL-1435PC-3): 48%; inhibition at 5 µg/mL (A375): 45.5%; inhibition at 5 µg/mL (AS24391): 36.6%; inhibition at 5 µg/mL (CRL-1469PANC-1): 40.6%; inhibition at 5 µg/mL (L428): 34.6%; inhibition at 5 µg/mL (B01092): 56.8%; inhibition at 5 µg/mL (HTB-94): 45.6%; inhibition at 5 µg/mL (SGC7901): 50.6%; inhibition at 5 µg/mL (HTB-38HT-29): 42.6%
Cc1ccc2c(c1)C(O)/C(=C/Cl)CS2 (stereo not shown) [Compound 17, (Z)-3-(chloromethylene)-6-methylthiochroman-4-ol] | 4 µg/mL (≈ 17.6 µM) | 4 µg/mL (≈ 17.6 µM) | 32 µg/mL (≈ 141 µM) | 16 µg/mL (≈ 70.6 µM) | 16 µg/mL (≈ 70.6 µM) | 16 µg/mL (≈ 70.6 µM) | 32 µg/mL (≈ 141 µM) | 16 µg/mL (≈ 70.6 µM) | 16 µg/mL (≈ 70.6 µM) | 32 µg/mL (≈ 141 µM) | 16 µg/mL (≈ 70.6 µM) | –
Cc1ccc2c(c1)C(O)/C(=C\Cl)CS2 (stereo not shown) [Compound 25, (E)-3-(chloromethylene)-6-methylthiochroman-4-ol] | – | 16 µg/mL (≈ 70.6 µM) | 8 µg/mL (≈ 35.3 µM) | 16 µg/mL (≈ 70.6 µM) | 16 µg/mL (≈ 70.6 µM) | 16 µg/mL (≈ 70.6 µM) | 8 µg/mL (≈ 35.3 µM) | 32 µg/mL (≈ 141 µM) | 4 µg/mL (≈ 17.6 µM) | – | 16 µg/mL (≈ 70.6 µM) | –
O=C1/C(=C\Cl)CSc2ncccc21 [Compound 27, (E)-3-(chloromethylene)-2H-thiopyrano[2,3-b]pyridin-4(3H)-one] | 4 µg/mL (≈ 18.9 µM) | 8 µg/mL (≈ 37.8 µM) | 16 µg/mL (≈ 75.6 µM) | 4 µg/mL (≈ 18.9 µM) | 8 µg/mL (≈ 37.8 µM) | 8 µg/mL (≈ 37.8 µM) | 2 µg/mL (≈ 9.45 µM) | 16 µg/mL (≈ 75.6 µM) | 4 µg/mL (≈ 18.9 µM) | 4 µg/mL (≈ 18.9 µM) | 32 µg/mL (≈ 151 µM) | MIC [1]: 16 µg/mL (≈ 75.6 µM)
